{
  "source": "patent EP1127574A1",
  "about": "“Use of chitinous materials for inhibiting cellular nitric oxide production” (Food Industry Research and Development Institute, priority 2000, dated 2001)",
  "key": {"[1]": {"tested_on": "RAW 264.7 cells", "test": "Measurement of NO production via nitrite detection (Griess reagents) in IFN-γ and LPS activated macrophages", "assay_type": "cell-based, mouse", "conditions": "for effect on NO production (in words): activated RAW 264.7 cells", "procedure": "(§1) Cell culture. NIH/3T3 (mouse embryo fibroblast, CCRC 60008) and RAW 264.7 (mouse monocyte/macrophage, CCRC 60001) cell lines were obtained from Culture Collection and Research Center (CCRC), Taiwan. Both cell lines were cultured in Dulbecco's modified essential medium (DMEM, GIBCO BRL, Rockville, MD) containing 1.5 g/L NaHCO3 supplemented with 10% fetal bovine serum (Hyclone, Logan, UT) and incubated in 5% CO2 at 37°C. Cell cultures were examined for mycoplasma contamination with the fluorescent stain Hoechst 33258 (Hay et al., ATCC Quality Control Methods for Cell Lines, American Type Culture Collection, Manassas, VA, 1992, pp 23-33). All cultures described in the present example were mycoplasma-free.\nCollagen/chitin-coated wells. Two mixtures were prepared. A mixture of collagen type I (rat tail, Sigma, St. Louis, MO) was dissolved in 0.1 N acetic acid to produce a 1 mg/ml collagen solution. Chitin was added to 0.1 N acetic acid until a 1 mg/ml mixture was achieved, and the mixture was sonicated for 3 minutes using a Labsonic U sonicator, (Braun Biotech International, Germany). After being autoclaved at 121°C for 15 minutes, the chitin mixture became a slurry of fine wires. Microtiter tissue culture plates (96-well) were rinsed with Dulbecco's phosphate-buffer saline without Ca^+2 and Mg^+2 (D-PBS, GIBCO BRL). Five microliters of collagen solution or different amounts of the chitin mixture were then added to each well. The plates were then air-dried in a laminar flow hood and stored at 4°C for up to a week.\nMeasurement of NO production via nitrite detection. Nitric oxide (NO) production was indirectly quantified by measuring the accumulation of nitrite (NO2^-) in the culture media using Griess reagents and sodium nitrite as a standard (Green et al., Anal. Biochem. 126:131-138, 1982; and Ignarro et al., Proc. Natl. Acad. Sci. USA 90:8103-8107, 1993). For nitrite assays, RAW 264.7 cells were subcultured in coated 96-well tissue culture plates at 1 x 10^5 cells/well and incubated for 24 hours. The culture media were changed to phenol red-free, serum-free DMEM containing 100 U/ml interferon-γ (IFN-γ, recombinant murine; GIBCO BRL) and 100 ng/ml lipopolysaccharide (LPS, Escherichia coli serotype O128:B12; Sigma). The samples were then tested as described in Rollo et al., J. Leukoc. Biol. 60:397-404, 1996.\nTo measure the effect of chitin on NO production, cells were subcultured directly in the chitin-coated 96-well tissue culture plates. After overnight incubation, cells became adhered to the bottom of chitin-coated wells. The culture media were removed and replaced with media supplemented with IFN-γ and LPS as described above. After 48 hours incubation, […] of culture supernatants were mixed sequentially with equal volumes of 60 mM sulfanilamide (Sigma) in 3 N HCl and 4 mM N-1-naphthylethylenediamine (Sigma) and then shaken for 5 minutes at room temperature as described in Rollo et al., supra. Nitrite concentration was measured by reading the sample's absorbance at 540 nm using a microplate reader (MRX, Dynex Technologies, Inc., VA)."}, "[2]": {"tested_on": "RAW 264.7 cells", "test": "Cytotoxicity test (MTT dye), RAW 264.7", "assay_type": "cell-based, mouse", "procedure": "as §1\nCollagen/chitin-coated wells. Two mixtures were prepared. A mixture of collagen type I (rat tail, Sigma, St. Louis, MO) was dissolved in 0.1 N acetic acid to produce a 1 mg/ml collagen solution. […]\nCytotoxicity test. […] Cytotoxicity was measured using the dye 3-(4,5-dimethylthiazol-2-yl)-2,5-diphenyl tetrazolium bromide (MTT; Merck Co., Germany) and following the methods described in Mosmann, J. Immunol. […]\nThe cytotoxicity associated with chitin and chitosan was evaluated for both mouse embryonic fibroblast NIH/3T3 cells and mouse monocyte-macrophage RAW 264.7 cells. […]"}, "[3]": {"conditions": "2 µg/ml in culture medium, activated RAW 264.7"}, "[4]": {"conditions": "10 µg/ml in culture medium, activated RAW 264.7"}, "[5]": {"conditions": "Mus musculus, RAW264.7, 48 h, 10 µg/ml in culture medium, activated RAW 264.7, read-out: Nitrite Production as Percentage of Control"}, "[6]": {"conditions": "10 µg/ml in culture medium, activated RAW 264.7, 2880 min"}},
  "data": [
    {"molecule": "CC(=O)N[C@H]1[C@H](O[C@H]2[C@H](O)[C@@H](NC(C)=O)C(O)O[C@@H]2CO)O[C@H](CO)[C@@H](O)[C@@H]1O", "note": "(stereo partly drawn) [chitobiose, 2-acetamido-2-deoxy-4-O-(2-acetamido-2-deoxy-b-D-glucopyranosyl)-D-glucopyranose]", "values": [
      {"measurement": "Nitrite Production", "setting": "[1]; [3]", "value": "64.9 ± 0.8", "unit": "µM"},
      {"measurement": "Nitrite Production", "setting": "[1]; [4]", "value": "64.1 ± 0.9", "unit": "µM"},
      {"measurement": "activity at 2 µg/mL", "setting": "[1]; Mus musculus, RAW264.7, 48 h, 2 µg/ml in culture medium, activated RAW 264.7, read-out: Nitrite Production as Percentage of Control", "value": 98.9, "unit": "%"},
      {"measurement": "activity at 10 µg/mL", "setting": "[1]; [5]", "value": 97.7, "unit": "%"}
    ]},
    {"molecule": "chitopentose", "values": [
      {"measurement": "Nitrite Production", "setting": "[1]; [3]", "value": "47.0 ± 0.5", "unit": "µM"},
      {"measurement": "Nitrite Production as Percentage of Control", "setting": "[1]; [3]", "value": "70.6 Percentage of Control"},
      {"measurement": "Nitrite Production", "setting": "[1]; [4]", "value": "42.7 ± 1.2", "unit": "µM"},
      {"measurement": "Nitrite Production as Percentage of Control", "setting": "[1]; [6]", "value": "65.1 Percentage of Control"},
      {"measurement": "effect on NO production (in words)", "setting": "[1]", "value": "did substantially decrease NO production"}
    ]},
    {"molecule": "CC(=O)N[C@H]1C(O)O[C@H](CO)[C@@H](O)[C@@H]1O", "note": "(stereo partly shown) [NAGA, N-acetylglucosamine, reference compound]", "values": [
      {"measurement": "Nitrite Production", "setting": "[1]; [4]", "value": "66.7 ± 0.9", "unit": "µM"},
      {"measurement": "activity at 10 µg/mL", "setting": "[1]; [5]", "value": 102, "unit": "%"},
      {"measurement": "cytotoxicity", "setting": "[2]", "value": "not cytotoxic"}
    ]},
    {"molecule": "N[C@H]1C(O)O[C@H](CO)[C@@H](O)[C@@H]1O", "note": "(stereo partly shown) [glucoseamine, glucosamine, reference compound]", "values": [
      {"measurement": "Nitrite Production", "setting": "[1]; [4]", "value": "64.3 ± 0.8", "unit": "µM"},
      {"measurement": "activity at 10 µg/mL", "setting": "[1]; [5]", "value": 98, "unit": "%"},
      {"measurement": "cytotoxicity", "setting": "[2]", "value": "not cytotoxic"}
    ]},
    {"molecule": "chitotriose", "values": [
      {"measurement": "Nitrite Production", "setting": "[1]; [3]", "value": "61.5 ± 0.9", "unit": "µM"},
      {"measurement": "Nitrite Production as Percentage of Control", "setting": "[1]; [3]", "value": "93.8 Percentage of Control"},
      {"measurement": "Nitrite Production", "setting": "[1]; [4]", "value": "61.1 ± 0.2", "unit": "µM"},
      {"measurement": "Nitrite Production as Percentage of Control", "setting": "[1]; [6]", "value": "93.1 Percentage of Control"}
    ]},
    {"molecule": "chitohexose", "values": [
      {"measurement": "Nitrite Production", "setting": "[1]; [3]", "value": "41.3 ± 0.8", "unit": "µM"},
      {"measurement": "Nitrite Production as Percentage of Control", "setting": "[1]; [3]", "value": "63 Percentage of Control"},
      {"measurement": "Nitrite Production", "setting": "[1]; [4]", "value": "35.8 ± 2.9", "unit": "µM"},
      {"measurement": "Nitrite Production as Percentage of Control", "setting": "[1]; [6]", "value": "54.5 Percentage of Control"},
      {"measurement": "effect on NO production (in words)", "setting": "[1]", "value": "did substantially decrease NO production"}
    ]},
    {"molecule": "chitotetraose", "values": [
      {"measurement": "Nitrite Production", "setting": "[1]; [3]", "value": "63.4 ± 0.5", "unit": "µM"},
      {"measurement": "Nitrite Production as Percentage of Control", "setting": "[1]; [3]", "value": "96.6 Percentage of Control"},
      {"measurement": "Nitrite Production", "setting": "[1]; [4]", "value": "61.3 ± 0.6", "unit": "µM"},
      {"measurement": "Nitrite Production as Percentage of Control", "setting": "[1]; [6]", "value": "93.4 Percentage of Control"}
    ]}
  ]
}
